Test results: patent publication US4544660A, “Pharmaceutically active tropanes” (Beecham Group p.l.c., priority 1978, dated 1985)
Where two headings read alike, the source gives them in different places.

What was measured:
[1] = tested on: intragastric pressure; assay: Increase in intragastric pressure in the rat; format: in vivo; parameters: III(a) Increase in Intragastric Pressure Dose (minimum dose for activity): unit not given here; conditions: s.c., 40 minute period after administration
Protocol: (a) Increase in intragastric pressure in the rat
Intragastric pressure changes were recorded from previously starved conscious but restrained rats using a saline filled catheter inserted into the lumen of the stomach via a permanent gastric fistula. The catheter was connected to a physiological pressure transducer and pressure changes recorded on a hot wire pen recorder. In each animal a pre-dose period of 40 minutes was allowed to obtain a measure of spontaneous activity. An index of activity was obtained by measuring the average height of pressure waves during 10 minute periods. Values for 4 such periods were obtained during assessment of spontaneous activity and for the 40 minute period after the subcutaneous administration of the compounds. Students `t` test was applied to the difference in average values obtained for spontaneous and post-compound activity.

[2] = tested on: Dopamine Receptor; assay: Inhibition of apomorphine induced stereotype behaviour in the rat; format: in vivo; parameters: key to I(a) Dose Inhibiting Stereotype Behaviour (slight inhibition, footnote *): *: slight at 0.05; key to I(a) Dose Inhibiting Stereotype Behaviour (slight inhibition, footnote +): +: slight at 1; conditions: s.c.; for I(a) Dose Inhibiting Stereotype Behaviour (dose for complete inhibition): apomorphine induced, IA(x) = inactive at dose in brackets
Description: (§1) I. Dopamine Receptor Blocking Activity in the Central Nervous System
(a) Inhibition of apomorphine induced stereotype behaviour in the rat
(method of Ernst (1967), Psychopharmacologia (Berl.) 10 316-323).

[3] = tested on: vomiting response; assay: Anti-emetic activity in the dog (apomorphine induced vomiting); format: in vivo; parameters: key to II Anti-Emetic Activity Dose, slight activity (footnote *): *: slight at 5 × 10^-4; conditions: s.c.; for ED100: Canis lupus familiaris, 30 min before apomorphine HCl 0.1 mg/kg s.c., complete inhibition, read-out: II Anti-Emetic Activity Dose, Complete Inhibition
Protocol: II. Anti-emetic activity in the dog
Compounds were administered subcutaneously 30 minutes prior to administration of a standard dose of apomorphine HCl (0.1 mg/kg subcutaneously) and the vomiting response compared to that obtained when the same animals were dosed with apomorphine HCl and vehicle only.

[4] = biological target: T1, dopamine receptor (Rattus norvegicus, UniProt P61169); assay: In vitro displacement of radiolabelled spiroperidol from dopamine receptor membranes; format: binding, rat (Male Hooded Lister); conditions: for inhibition at 10 µM: 0.25 h, 10^-5 M compound, read-out: I(c) Spiroperidol Displacement % at 10^-5 M
T1 construct: the caudate nucleus is quickly dissected out; from tissue; host or cells: caudate nucleus of male Hooded Lister rats, homogenate
T1 sequence (P61169 whole entry): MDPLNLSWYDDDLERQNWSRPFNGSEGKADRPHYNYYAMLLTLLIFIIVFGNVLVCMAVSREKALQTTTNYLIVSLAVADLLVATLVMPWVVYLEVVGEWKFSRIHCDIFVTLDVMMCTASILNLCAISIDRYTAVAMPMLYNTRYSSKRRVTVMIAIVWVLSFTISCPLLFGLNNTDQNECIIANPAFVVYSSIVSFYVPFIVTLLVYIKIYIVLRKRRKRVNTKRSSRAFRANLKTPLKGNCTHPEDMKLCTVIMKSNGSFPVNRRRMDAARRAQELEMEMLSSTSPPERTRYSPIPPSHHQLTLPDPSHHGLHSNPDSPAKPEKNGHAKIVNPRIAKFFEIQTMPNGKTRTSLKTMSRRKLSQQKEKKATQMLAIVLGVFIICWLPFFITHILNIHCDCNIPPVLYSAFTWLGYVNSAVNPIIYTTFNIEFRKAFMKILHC
Protocol: (c) In vitro displacement of radiolabelled spiroperidol from dopamine receptor membranes
Therefore a compound which displaces this ligand from dopamine receptor membranes may have neuroleptic properties.
Male Hooded Lister rats (200-300 g) are decapitated and the caudate nucleus is quickly dissected out. This is homogenised in ice cold Tris buffer (pH 7.7 at 25° C.) at a concentration of 10 mg/ml wet weight of tissue. The test compound (at 10^-5 M) or spiroperidol (standard curve from 10^-5 to 10^-9 M) is added to the assay tubes followed by 0.5 nM [^3 H]-spiroperidol. This is mixed with 500 μl of the membrane preparation and the assay tubes are incubated for 15 minutes at 37° C. After this period 4 ml ice cold Tris buffer is added to each tube and the solutions are filtered through per-soaked glass fibre filters. The filter is washed twice with 4 ml of the buffer and then transferred to a scintillation vial for counting. Single concentration results are given as a percentage of [^3 H]-spiroperidol displaced.

[5] = tested on: Dopamine Receptor; assay: Inhibition of apomorphine induced climbing in the mouse; format: in vivo; conditions: p.o., apomorphine 1 mg/kg s.c.
Protocol: as §1
(b) Inhibition of apomorphine induced climbing in the mouse
The test is based on that described by Protais, P., Constantin, J. and Schwartz J.C. (1976), Psychopharmacology, 50, 1-6.
Apomorphine 1 mg/kg s.c. induces mice to climb the wall of a wire cage (inverted food hopper--11×7.5×18 cm high). Mice acclimatised in their home cages in groups of 5 are placed under the hoppers immediately after the injection of apomorphine 1 mg/kg s.c. At 10,20 and 30 minutes after injection climbing behaviour is scored. The mice are observed for 30 seconds and scored according to the position they spend the majority of time in, score 0--four paws on floor of cage; score 1--fore paws only on walls; score 2--all paws on wall of cage. The scores at all 3 times and for each mouse are summed and mice drug treated orally compared to mice receiving apomorphine only. A saline only treated group is also included and any score, generally <5% of maximum taken into account.

[6] = tested on: gastric emptying; assay: Increase in gastric emptying: reversal of apomorphine induced delay in gastric emptying in the rat; format: in vivo; conditions: for III(b) Increase in Gastric Emptying: 10 mg/kg s.c., apomorphine HCl 5 mg/kg s.c. induced delay
Protocol: (b) Increase in gastric emptying: reversal of apomorphine induced delay in gastric emptying in the rat
Rats equipped with chromic gastric fistulae were used and it was through this that 5 ml of a test meal (5 ml phosphate buffer at pH 9) was administered and recovered. The % recovery of the standard meal after remaining in the stomach for 10 minutes was taken as an index of gastric emptying. Delay in gastric emptying was induced by the administration of apomorphine HCl (5 mg/kg subcutaneously) which was given 15 minutes prior to the subcutaneous administration of the compound. The % recoveries of the test meal were determined at 15-25 and 45-55 minutes post-dosing with the compound and compared with vehicle only dosed animals set up simultaneously. Six animals were used for each group.

[7] = Anti-obesity activity (single compound test); format: in vivo
[8] = biological target: T1, dopamine receptor; conditions: literature; cited from earlier work
[9] = Anti-arrhythmic activity (single compound test)
[10] = 0.5 nM [3H]-spiroperidol, rat caudate nucleus membranes
[11] = 0.5 nM [3H]-spiroperidol, rat caudate nucleus membranes, read-out: I(c) Spiroperidol Displacement ED50 (concentration for 50% displacement)

Compound	III(a) Increase in Intragastric Pressure Dose (minimum dose for activity) [1]	I(a) Dose Inhibiting Stereotype Behaviour (dose for complete inhibition) [2]	ED100 [3] [mg/kg]	inhibition at 10 µM [4, 10] [%]	I(b) Anti-Climbing Activity Dose, Complete Inhibition [5]	III(b) Increase in Gastric Emptying [6]	I(b) Anti-Climbing Activity Dose, ED50 [5] [mg/kg]	also measured
COc1cc(N)c(Cl)cc1C(=O)N[C@@H]1C[C@H]2CCC[C@@H](C1)N2Cc1ccccc1 [Compound 12, 4-amino-5-chloro-2-methoxy-N-(3'β-[9'-benzyl-9'-azabicyclo-[3.3.1]-nonyl])-benzamide]	IA(1)	0.5 mg/kg	0.1	53	2 mg/kg			
COc1cc(N)c(Cl)cc1C(=O)N[C@@H]1C[C@H]2CC[C@@H](C1)N2CCc1ccccc1 [Compound 18, 4amino-5-chloro-2-methoxy-N-(3β-[8'-β-phenethyl]-['-azabicyclo[3.2.1]octyl])-benzamide]	IA(5)	IA(50)	0.25		IA (inactive at 10 mg/Kg p.o.)			IC50 [4, 11]: 600 nM
COc1cc(N)c(Cl)cc1C(=O)N[C@@H]1C[C@H]2CC[C@@H](C1)N2C [Compound 19, 4-Amino-5-chloro-2-methoxy-N-(3'β-[8'-methy-8'-azabicyclo[3.2.1]-octyl])-benzamide]		IA(25)	0.6	64	IA (inactive at 10 mg/Kg p.o.)	25%		minimal effective dose ([1]; sc, 40 min, read-out: III(a) Increase in Intragastric Pressure Dose (minimum dose for activity)): 1 to 10 mg/kg
COc1cc(N)c(Cl)cc1C(=O)N[C@@H]1C[C@H]2CC[C@@H](C1)N2Cc1ccc(C)cc1 [Compound 13, 4amino-5chloro-2-methoxy-N-(3β-[8'[4"methylbenzyl]-8'-azabicyclo[3.2.1]octyl])-benzamide]			0.1	54			0.12	
COc1cc(N)c(Cl)cc1C(=O)N[C@@H]1C[C@H]2CC[C@@H](C1)N2CC1CCCCC1 [Compound 30, 4-amino-5-chloro-2-methoxy-N-(3'β-[8'-cyclohexylmethyl-8'-azabicyclo-[3.2.1]-octyl])-benzamide]	IA(1)				5 mg/kg	0.05%		I(a) Dose Inhibiting Stereotype Behaviour (slight inhibition, footnote *) ([2]; slight at 0.05): *; II Anti-Emetic Activity Dose, slight activity (footnote *) ([3]; slight at 5 × 10^-4): *; IC50 [4]: 20 nM
COc1cc(N)c(Cl)cc1C(=O)N[C@@H]1C[C@H]2CC[C@@H](C1)N2Cc1ccccc1 [Compound 5, 4-amino-5-chloro-2-methoxy-N-(3'β-[8'-benzyl]8-azabicyclo[3.2.1]octyl)benzamide]		0.05 mg/kg	0.001				0.03	minimal effective dose ([6]; sc, read-out: dose that significantly increases gastric emptying): 0.05 mg/kg; anti-obesity activity [7]: anti-obesity activity
CCCCN1[C@@H]2CC[C@H]1C[C@H](NC(=O)c1cc(Cl)c(N)cc1OC)C2 [Compound 26, 4-amino-5-chloro-2-methoxy-N-(3'β-[8'-n-butyl-8'-azabicyclo[3.2.1]-octyl])benzamide]			0.4			1%	2.9	I(a) Dose Inhibiting Stereotype Behaviour (slight inhibition, footnote +) ([2]; slight at 1): +; IC50 [4, 11]: 400 nM
O=C(CCCN1CCC2(CC1)C(=O)NCN2c1ccccc1)c1ccc(F)cc1 [[3H]-spiroperidol]								binding to dopamine receptors in the brain [8]: high affinity
CCCCN1[C@@H]2CC[C@H]1C[C@@H](NC(=O)c1cc(Cl)c(N)cc1OC)C2 [Compound 27, 4-amino-5-chloro-2-methoxy-N-(3'α-[8'-n-butyl-8'-azabicyclo[3.2.1]-octyl])benzamide]	IA(10)	IA(10)	1	66	IA (inactive at 10 mg/Kg p.o.)	IA(10)		
COc1cc(N)c(Cl)cc1C(=O)N[C@H]1C[C@H]2CC[C@@H](C1)N2C [Compound 20, 4-amino-5-chloro-2-methoxy-N-(3'α-[8'-methyl-8'-azabicyclo[3.2.1]-octyl])-benzamide]								anti-arrhythmic activity [9]: anti-arrhythmic activity
